The record followed here is patent US20220009920A1 (GB005, Inc., priority 2020, published 2022).

Holding throughout (assay): Large panel kinase profiling
Holding throughout (format): biochemical
Holding throughout (conditions): 1 μM test article, 1 mM ATP

In one assay the target is T1, BRSK1 (Homo sapiens, UniProt Q8TDC3).
T1 sequence (Q8TDC3 1-778): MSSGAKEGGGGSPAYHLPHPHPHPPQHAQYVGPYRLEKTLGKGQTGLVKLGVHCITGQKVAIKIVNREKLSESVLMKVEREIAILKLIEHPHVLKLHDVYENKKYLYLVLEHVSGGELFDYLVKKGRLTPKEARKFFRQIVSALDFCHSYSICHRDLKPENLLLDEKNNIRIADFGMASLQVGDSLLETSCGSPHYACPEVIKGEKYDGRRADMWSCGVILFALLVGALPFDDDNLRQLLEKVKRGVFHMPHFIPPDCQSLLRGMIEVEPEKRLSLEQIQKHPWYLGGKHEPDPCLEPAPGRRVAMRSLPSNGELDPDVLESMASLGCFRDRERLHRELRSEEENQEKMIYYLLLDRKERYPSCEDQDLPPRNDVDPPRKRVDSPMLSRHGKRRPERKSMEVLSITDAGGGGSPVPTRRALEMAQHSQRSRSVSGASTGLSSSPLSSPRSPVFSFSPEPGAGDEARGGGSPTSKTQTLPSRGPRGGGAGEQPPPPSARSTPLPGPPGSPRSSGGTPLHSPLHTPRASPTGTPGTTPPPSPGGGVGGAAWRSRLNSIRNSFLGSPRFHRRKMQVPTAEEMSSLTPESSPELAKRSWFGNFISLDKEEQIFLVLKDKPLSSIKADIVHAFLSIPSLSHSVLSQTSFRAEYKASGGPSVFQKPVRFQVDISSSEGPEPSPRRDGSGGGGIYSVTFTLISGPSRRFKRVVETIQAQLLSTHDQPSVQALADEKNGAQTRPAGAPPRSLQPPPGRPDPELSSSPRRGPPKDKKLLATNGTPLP
A digest of the protocol:
(§1)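 Profiling across the panel relied on the PhosphoSens CSox-Sensor format. A compound concentration of 1 μM and an ATP level of 1 mM were used throughout.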

The next assay has as its target T2, CSNK1G1/CK1G1 (Homo sapiens, UniProt Q9HCP0).
T2 construct: AssayQuant Technologies, Inc. (service laboratory)
In a few lines: as §1

The next assay has as its target T3, MAP3K12 (Homo sapiens, UniProt Q12852).
T3 sequence (Q12852 1-859): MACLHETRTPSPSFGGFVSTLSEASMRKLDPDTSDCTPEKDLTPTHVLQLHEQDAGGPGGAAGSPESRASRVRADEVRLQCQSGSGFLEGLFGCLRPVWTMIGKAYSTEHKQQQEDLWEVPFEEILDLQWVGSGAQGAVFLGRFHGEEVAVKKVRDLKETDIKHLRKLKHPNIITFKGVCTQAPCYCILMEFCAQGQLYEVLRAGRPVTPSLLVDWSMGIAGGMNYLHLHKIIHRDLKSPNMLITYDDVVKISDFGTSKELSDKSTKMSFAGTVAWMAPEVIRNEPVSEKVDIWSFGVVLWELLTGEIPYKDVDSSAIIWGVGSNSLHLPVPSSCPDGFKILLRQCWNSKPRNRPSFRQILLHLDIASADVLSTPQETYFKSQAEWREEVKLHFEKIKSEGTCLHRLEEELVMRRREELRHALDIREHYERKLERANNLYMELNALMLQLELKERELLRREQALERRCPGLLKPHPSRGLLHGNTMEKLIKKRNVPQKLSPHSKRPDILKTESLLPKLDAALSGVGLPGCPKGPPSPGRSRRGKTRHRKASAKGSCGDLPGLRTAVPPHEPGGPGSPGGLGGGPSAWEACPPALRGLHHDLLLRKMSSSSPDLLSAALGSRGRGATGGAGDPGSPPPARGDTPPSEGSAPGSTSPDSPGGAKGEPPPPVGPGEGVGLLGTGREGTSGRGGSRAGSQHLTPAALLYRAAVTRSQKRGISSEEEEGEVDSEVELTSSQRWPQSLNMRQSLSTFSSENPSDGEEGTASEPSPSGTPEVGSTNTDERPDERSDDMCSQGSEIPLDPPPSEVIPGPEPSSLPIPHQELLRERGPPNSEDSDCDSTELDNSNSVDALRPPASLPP
A digest of the protocol: as §1

T2 sequence (Q9HCP0 whole entry): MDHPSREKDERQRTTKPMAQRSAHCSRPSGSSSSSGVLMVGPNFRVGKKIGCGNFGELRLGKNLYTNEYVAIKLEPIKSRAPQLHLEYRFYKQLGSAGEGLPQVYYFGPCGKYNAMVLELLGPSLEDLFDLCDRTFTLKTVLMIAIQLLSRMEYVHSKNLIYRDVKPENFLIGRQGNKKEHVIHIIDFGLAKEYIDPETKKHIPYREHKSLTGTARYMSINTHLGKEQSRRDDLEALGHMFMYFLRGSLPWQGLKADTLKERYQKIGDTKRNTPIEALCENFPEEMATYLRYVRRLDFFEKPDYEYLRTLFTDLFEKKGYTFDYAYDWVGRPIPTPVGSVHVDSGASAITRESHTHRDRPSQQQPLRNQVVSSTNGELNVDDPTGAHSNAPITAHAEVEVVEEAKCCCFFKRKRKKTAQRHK

By inhibition is commonly meant the drop in the measured response relative to a control, in per cent. In the case of `C=CC(=O)N1CCCC(c2c(F)cc(C(N)=O)c3[nH]c4c(c23)CCCCC4)C1` (single isomer, unassigned) [Compound 5-6], the inhibition at 1 µM against BRSK1 was -30.9%; on CSNK1G1/CK1G1, 17.2%; against MAP3K12, 5%.

In the case of `C=CC(=O)N1CCC[C@@H](c2c(F)cc(C(N)=O)c3[nH]c4c(c23)CC2(CC4)CC2)C1` [Compound 6-2, (S)-5-(1-acryloylpiperidin-3-yl)-6-fluoro-1,2,4,9-tetrahydrospiro[carbazole-3,1′-cyclopropane]-8-carboxamide], the inhibition at 1 µM is -13% against BRSK1, 14% on CSNK1G1/CK1G1 and -18.8% at MAP3K12.

Consider `C=CC(=O)N1CCC[C@@H](c2c(F)cc(C(N)=O)c3[nH]c4c(c23)CCC4)C1` [Compound 10-2, (S)-8-(1-acryloylpiperidin-3-yl)-7-fluoro-1,2,3,4-tetrahydrocyclo-penta[b]indole-5-carboxamide], for which the inhibition at 1 µM against BRSK1 is 10.1%; against CSNK1G1/CK1G1, -2.8%; on MAP3K12, -27.7%.
